From publication PMC7447632, “Highly functionalized β-lactams and 2-ketopiperazines as TRPM8 antagonists with antiallodynic activity” (Scientific Reports, 2020)
pIC50: −log10 of the molar value.

Columns and labels:
[1] = molecular target: T1, rTRPM8 (Rattus norvegicus, UniProt Q8R455); assay: Patch-clamp electrophysiology, whole cell, HEK293 cells expressing rTRPM8; assay type: cell-based; conditions: for pIC50: Patch-clamp, holding potential -60 mV, read-out: IC50 TRPM8 current blockade; for Hill coefficient n: fit of concentration-response curve, -60 mV
T1 construct: expressed in transfected cells; host or cells: HEK293 (stably transfected)
T1 sequence (Q8R455 whole entry): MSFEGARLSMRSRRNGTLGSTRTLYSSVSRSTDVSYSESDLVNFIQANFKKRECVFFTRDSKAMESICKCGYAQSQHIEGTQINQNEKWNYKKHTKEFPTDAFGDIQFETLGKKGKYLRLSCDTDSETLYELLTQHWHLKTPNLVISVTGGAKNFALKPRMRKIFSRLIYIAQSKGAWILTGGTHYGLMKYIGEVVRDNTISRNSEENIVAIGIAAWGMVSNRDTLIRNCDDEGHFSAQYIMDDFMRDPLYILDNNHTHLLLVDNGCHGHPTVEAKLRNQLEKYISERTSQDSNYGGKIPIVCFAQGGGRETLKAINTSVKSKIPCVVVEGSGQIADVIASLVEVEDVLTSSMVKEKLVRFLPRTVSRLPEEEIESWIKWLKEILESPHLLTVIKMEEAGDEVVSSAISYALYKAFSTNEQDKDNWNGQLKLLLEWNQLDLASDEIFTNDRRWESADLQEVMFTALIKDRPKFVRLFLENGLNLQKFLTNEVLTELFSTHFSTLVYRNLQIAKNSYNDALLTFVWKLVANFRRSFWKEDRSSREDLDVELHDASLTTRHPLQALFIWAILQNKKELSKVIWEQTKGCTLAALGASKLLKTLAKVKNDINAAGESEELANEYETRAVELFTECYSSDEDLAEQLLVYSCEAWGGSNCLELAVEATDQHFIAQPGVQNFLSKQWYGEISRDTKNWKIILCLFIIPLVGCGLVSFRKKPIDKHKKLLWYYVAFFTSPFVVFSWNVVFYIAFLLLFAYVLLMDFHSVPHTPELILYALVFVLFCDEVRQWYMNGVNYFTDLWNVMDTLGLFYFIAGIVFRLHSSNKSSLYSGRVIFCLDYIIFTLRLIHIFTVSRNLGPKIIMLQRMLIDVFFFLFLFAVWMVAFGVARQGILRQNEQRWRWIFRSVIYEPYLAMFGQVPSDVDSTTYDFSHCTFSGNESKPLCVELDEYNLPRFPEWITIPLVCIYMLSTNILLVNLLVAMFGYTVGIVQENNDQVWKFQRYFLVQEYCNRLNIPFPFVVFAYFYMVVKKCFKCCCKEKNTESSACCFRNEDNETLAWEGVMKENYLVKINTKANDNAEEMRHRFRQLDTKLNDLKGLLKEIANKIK
Text: The TRPM8 antagonist activity of the enantiopure β-lactams 24a and 29a was further confirmed electrophysiologically by Patch-clamp experiments, using the whole cell configuration in HEK293 cells expressing TRPM8 channels.
The dose–response curve for both compounds was obtained at a holding potential of -60 mV (Supplementary Fig. S4).
Figure 2 Compounds 24a and 29a block TRPM8-mediated responses evoked by menthol in rTRPM8-expressing HEK293 cells. (A, C). I–V curves obtained in HEK293 cells expressing TRPM8 and exposed to vehicle solution (Vehicle; black trace; A,C), 100 µM menthol (red trace; A,C), 100 µM menthol + 10 µM 24a (blue trace; A) or to 100 µM menthol + 10 µM compound 29a (blue trace; C) (B,D), Concentration − response curves for TRPM8 current blockade by compound 24a (B) or compound 29a (D) at a holding voltage of -60 mV. Peak current data were expressed as pA/pF (to facilitate comparison among cells of different size) and expressed as a function of antagonist concentrations. The solid lines represent fits of the experimental data to the following binding isotherm: y = max/(1 + x/EC50)n, where x is the drug concentration and n the Hill coefficient. The fitted values for n were 0.97 ± 0.05 or 0.98 ± 0.6 for compound 24a or 29a, respectively. Each point is the mean ± SD of 8 (for compound 24a) or 9 (for compound 29a) determinations, each obtained in different cells. TEXT PRINTED IN THE PICTURE: (B) 24a: IC50=1,4±1,1 μM | (D) 29a: IC50=0,8±1,2 μM
Electrophysiological recording was carried out 1–3 days after cells seeded. Membrane currents and voltages were recorded by patch clamp using the whole-cell configuration. For whole-cell recordings of HEK-rTRPM8 cells, pipette solution contained (in mM) 150 NaCl, 5 EGTA, 3 MgCl2 and 10 HEPES, adjusted to pH 7.2 with NaOH, and bath solution contained (in mM) 150 NaCl, 6 CsCl, 1.5 CaCl2, 1 MgCl2, 10 D-glucose and 10 HEPES, adjusted to pH 7.4 with NaOH. Data were sampled at 10 kHz (EPC10 amplifier with PatchMaster 2.53 software, HEKA Electronics, Lambrecht, Germany) and low-pass filtered at 3 kHz for analysis (PatchMaster 2.53 and GraphPad Prism 5, Graphpad Software, USA). The series resistance was < 10 MΩ and to minimize voltage errors was compensated to 60–80%. All measurements were performed at 24–25 °C. The TRPM8 response was quantified as the ratio P2/P1, being P2 the second menthol pulse in the presence of the vehicle or antagonist tested, and P1 refers to the first menthol pulse. This paradigm considers the extend of receptor desensitization as the P2/P1 obtained with the vehicle. Thus, the estimated IC50 values are corrected from receptor desensitization.

[2] = tested on: MDA-MB-231 (breast adenocarcinoma); assay: SRB cytotoxicity assay, MDA-MB-231; assay type: cell-based; conditions: 72 h, SRB; for TGI MDA-MB-231: total growth inhibition; for TGI MDA-MB-231 / CC50: unit inferred; for GI50 / CC50: Homo sapiens, MDA-MB-231; for CC50: read-out: LC50 MDA-MB-231
Method: Human tumor cell lines used in this study were purchased from the ATCC. A-549 (CCL-185), lung carcinoma; HT-29 (HTB-38), colorectal adenocarcinoma; MDA-MB-231 (HTB-26), breast adenocarcinoma; PSN1, pancreas adenocarcinoma.
All cell lines were maintained in DMEM (Dulbecco’s Modified Eagle's Medium) culture medium supplemented with 10% FBS (Fetal Bovine Serum), 100 Units/mL penicillin/streptomycin at 37 °C, 5% CO2 and 95% humidity.
Triplicate cultures were incubated for 72 h in the presence or absence of test compounds in dose–response curves (10 concentrations, typically ranging from 10 to 0.0026 µg/mL). A colorimetric assay using sulforhodamine B (SRB) was adapted for quantitative measurement of cell growth and cytotoxicity. A more detailed information on this assay is provides in the supplementary information. GI50 is the compound concentration that produces 50% inhibition on cell growth as compared to control cells.
In vitro bioassays for the detection of antitumor activity
The aim of this assay is to evaluate the in vitro cytostatic (ability to delay or arrest tumor cell growth) or cytotoxic (ability to kill tumor cells) activity of the samples […]
Name Nº ATCC Species Tissue Characteristics
A549 CCL-185 human lung lung carcinoma (NSCLC)
HT29 HTB-38 human colon colorectal adenocarcinoma
MDA-MB-231 HTB-26 human breast breast adenocarcinoma
PSN1 CRM-CRL-3211 human pancreas pancreas adenocarcinoma […]
A colorimetric assay, using Sulforhodamine B (SRB) reaction has been adapted to provide a quantitative measurement of cell growth and viability (following the technique described by Skehan et al. J. Natl. Cancer Inst. 1990, 82, 1107-1112 […]
This form of assay employs 96-well cell culture microplates following the standards of the American National Standards Institute and the Society for Laboratory […]
used in this study were obtained from the American Type Culture Collection (ATCC) and derive from different types of human cancer.
A549, HT29, MDA-MB-231 and PSN1 cells were maintained in Dulbecco’s
Modified Eagle Medium (DMEM) supplemented with 10% Fetal Bovine Serum (FBS), 2mM L-glutamine, 100 U/mL penicillin, and 100 U/mL streptomycin at 37 °C, 5% CO2 and 98% humidity. For the experiments, cells were harvested from subconfluent cultures using trypsinization and resuspended in fresh medium before counting and […]
A549, HT29, MDA-MB-231 and PSN1 cells were seeded in 96 well microtiter plates, at 5000 cells per well in aliquots of 150 µL, and allowed to attach to the plate surface for 18 hours (overnight) in drug free medium. After that, one control (untreated) plate of each cell line was fixed (as described below) and used for time zero reference value. Culture plates were then treated with test compounds (50 µL aliquots of 4X stock […]
solutions in complete culture medium plus 4% DMSO) using ten 2/5 serial dilutions (concentrations ranging from 10 to 0.003 µg/mL) and triplicate cultures (1% final concentration in DMSO). After 72 hours treatment, the antitumor effect was measured by using the SRB methodology: Briefly, cells were washed twice with PBS, fixed for 15 min in 1% glutaraldehyde solution at room temperature, rinsed twice in PBS, and stained in 0.4% SRB solution for 30 min at room temperature. Cells were then rinsed several times with 1% acetic acid solution and air-dried at room temperature. SRB was then extracted in 10 mM trizma base solution and the absorbance measured in an automated spectrophotometric plate reader at 490 nm.
Effects on cell growth and survival were estimated by applying the NCI algorithm (Boyd MR and Paull KD. Drug Dev. Res. 1995, 34, 91-109, DOI:10.1002/ddr.430340203). The values obtained in triplicate cultures were fitted by nonlinear regression to a four-parameters logistic curve by nonlinear regression analysis. . Using the absorbance measurements [time zero, (Tz), control growth, (C), and test growth in the presence of drug at the ten concentration levels (Ti)], the […]

SMILES | Effect on menthol-mediated TRPM8 activity (I-V curve) ([1]; 10 µM compound, 100 µM menthol, +120 mV) | pIC50 ([1]; 100 µM menthol) | Hill coefficient n [1] | TGI MDA-MB-231 [2] [µM] | GI50 [2] [µM] | CC50 [2] [µM]
C[C@@H]1C(=O)N(C[C@H](Cc2ccccc2)NC(=O)OCc2ccccc2)[C@]1(Cc1ccccc1)C(=O)OCc1ccccc1 [Compound 24a, 4S-Benzyl-4-benzyloxycarbonyl-3S-methyl-1-[(2′S-benzyloxycarbonylamino-3′-phenyl)prop-1′-yl]-2-oxoazetidine] | important reduction on the menthol-mediated TRPM8 activity | 5.85 | 0.97 ± 0.05 | > 17.3 | > 17.3 | > 17.3
C[C@@H]1C(=O)N(C[C@@H](Cc2ccccc2)NC(=O)OCc2ccccc2)[C@]1(Cc1ccccc1)C(=O)OCc1ccccc1 [Compound 29a, 4S-Benzyl-4-benzyloxycarbonyl-3S-methyl-1-[(2′R-benzyloxycarbonylamino-3′-phenyl)prop-1′-yl]-2-oxoazetidine] | – | 6.10 | 0.98 ± 0.6 | > 17.3 | 12.7 | > 17.3
